Test results from article PMC9848259 (Journal of Enzyme Inhibition and Medicinal Chemistry, 2023).

Assays:
[1] = molecular target: T1, AChE (from the electric eel) (Electrophorus electricus, UniProt O42275); assay: biochemical; details: for Selectivity for AChE: IC50(BuChE)/IC50(AChE); for IC50: means ± SD of three experiments
T1 construct: purchased Sigma Aldrich
Protocol: (§1) The capacity of the novel cyclopentaquinoline hybrids to inhibit AChE (from the electric eel) and BuChE (from equine serum) were determined by the modified colorimetric Ellman’s method[38]^,[39]. Both enzymes, DTNB – Ellman’s reagent (5,5′-dithiobis-(2-nitrobenzoic acid)), acetyltiocholine iodide (ATCI) were obtained from Sigma Aldrich. AChE and BuChE samples in phosphate buffer (PBS) pH 8.0 were incubated in 96-well plates in the presence of the substrate (ATCI), 76 µl of DTNB and the tested compound at various concentration at room temperature for 10 min (AChE) or eight minutes (BuChE).

[2] = molecular target: T2, BuChE (from equine serum) (Equus caballus, UniProt P81908); assay: biochemical; details: for Selectivity for BuChE: IC50(AChE)/IC50(BuChE); for IC50: means ± SD of three experiments
T2 construct: purchased Sigma Aldrich; host or cells: equine serum
Protocol: as §1

hyaluronidase = molecular target: T3, hyaluronidase (Bos taurus, UniProt Q2YDK3); assay: Hyaluronidase inhibition test (turbidimetric); format: biochemical
T3 sequence (Q2YDK3 36-553): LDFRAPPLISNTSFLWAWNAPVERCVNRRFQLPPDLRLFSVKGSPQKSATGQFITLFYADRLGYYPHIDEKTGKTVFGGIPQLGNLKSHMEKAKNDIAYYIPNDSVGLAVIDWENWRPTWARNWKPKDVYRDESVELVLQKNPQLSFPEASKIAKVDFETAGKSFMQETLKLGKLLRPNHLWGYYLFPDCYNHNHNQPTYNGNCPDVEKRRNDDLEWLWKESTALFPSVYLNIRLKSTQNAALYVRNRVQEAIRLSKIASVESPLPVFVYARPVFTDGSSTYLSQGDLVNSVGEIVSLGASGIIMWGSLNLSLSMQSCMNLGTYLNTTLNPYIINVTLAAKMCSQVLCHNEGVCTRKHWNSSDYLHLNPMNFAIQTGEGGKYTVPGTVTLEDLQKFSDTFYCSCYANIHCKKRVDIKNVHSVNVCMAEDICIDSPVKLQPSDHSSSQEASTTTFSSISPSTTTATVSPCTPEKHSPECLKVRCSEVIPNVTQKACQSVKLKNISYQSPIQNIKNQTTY
Protocol: Hyaluronidase inhibition was established by turbidimetry according to USP XXII-NF XVII[43], which was further adapted to use in 96-well plates by Piwowarski et al.[44] and the principle of this assay is based on the following reaction: hyaluronic acid→hyaluronidase depolymerization products+[…]
The ability to inhibit hyaluronidase was assessed using a turbidimetric method based on spectrophotometric measurement of turbidity resulting from the formation of hyaluronan-bovine albumin complexes in an acidic environment. The analysis was performed against a positive control. Briefly, 20 µl of the tested compound in monosodium phosphate buffer (pH 7.0) was added to 40 µl of hyaluronidase solution (22.55 U/ml, Sigma Aldrich) in the same buffer. The mixture was incubated for 10 min in the dark at 37 °C. Next, 40 µl of hyaluronic acid solution (0.03%, Sigma Aldrich) in monosodium phosphate buffer (pH 5.35) was added to all wells and the mixture was further kept in the dark at 37 °C for 45 min. Finally, 300 µl of bovine serum albumin solution (0.1%, Serva) in sodium acetate buffer (pH 3.75) was added to the mixture, and the 96-well plate was incubated at room temperature for next 10 min. Changes in turbidity at 600 nm were measured by a microplate reader (BioTek, Winooski, VT, USA). Heparin (WZF, Polfa) was used as a positive control. […]

[3] = calibration substance; cited from earlier work
[4] = test system: Human hepatic stellate cells (HSCs); assay: in vitro; format: cell-based; details: 0.1 µM, 24 h
Protocol: Human hepatic stellate cells (HSCs, Sciencell) were grown in the Stellate Cell Medium (Sciencell) supplemented with 2% Foetal Bovine Serum (Sciencell), 1% Stellate Cell Growth Supplement (Sciencell) and 1% penicillin/streptomycin solution (Sciencell). The cells were cultured in the incubator at 37 °C and 5% CO2. To start the experiment, the cells were seeded at a density of 5 × 10^3 cells/well in 96-well plates and incubated (37 °C, 5% CO2) for 24 h. After incubation, medium was removed from the wells and the cells were exposed to 100 µl of the compound over a range of concentrations (from 0.1 to 10 µM) or 100 µl of culture medium alone (blank control). The cells were then further incubated for 24 h. After this time, the medium was removed, the cells were washed with PBS and 50 µl of MTT solution (0.75 mg/ml) was added to each well. The plates were incubated in the dark at 37 °C for another two hours. The MTT solution was then removed from the wells and 100 µl of DMSO was added. The plates were incubated at room temperature for 10 min and then 5 µl of Sorensen Buffer was added to each well. The plates were swayed and the absorbance at 570 nm was measured with a microplate reader (Synergy H1, BioTek, Winooski, VT, USA). The cell viability was expressed as a percentage of the control values (blank control)[40]^,[46]^,[47].

SH-SY5Y cells [5] = assay: Neuroprotection against H2O2-induced oxidative stress, MTT test; format: cell-based, human; details: H2O2 100 µM
SH-SY5Y cells [6] = assay: Neuroprotection against rotenone/oligomycin A, pre-incubation, MTT test; format: cell-based, human; details: Rotenone/Oligomycin A 30/10 µM, compound 0.001 µM
SH-SY5Y cells [7] = assay: Neuroprotection against rotenone/oligomycin A, co-incubation, MTT test; format: cell-based, human; details: Rotenone/Oligomycin A 30/10 µM
Aβ42 = molecular target: T4, Aβ42 (Homo sapiens, UniProt P05067); assay: In cellulo β-amyloid assay, Th-S fluorescence in E. coli over-expressing Aβ42; format: cell-based, Escherichia coli; details: 10 µM
T4 construct: expressed in transfected cells; host or cells: Escherichia coli BL21 (DE3), pET vector
T4 sequence (P05067 672-713): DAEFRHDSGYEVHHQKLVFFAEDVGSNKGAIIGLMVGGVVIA
Protocol: Inhibition assay in Escherichia coli cells over-expressing amyloid proteins. […] Escherichia coli competent cells BL21 (DE3) were transformed with the required pET vectors carrying the DNA sequence of Aβ42 peptide. Because of the addition of the initiation codon ATG in front of genes, the over-expressed Aβ42 contains an additional methionine residue at their N terminus. For overnight culture preparation, a colony of BL21 (DE3) bearing the plasmid to be expressed was inoculated in 10 ml of M9 minimal medium containing 50 μg/ml of kanamycin at 37 °C. […] The bacterial culture was then grown at 37 °C, with orbital agitation of 250 rpm. When the cell density reached OD600nm–0.6, 980 μL of the culture were transferred into 1.5 ml conical tubes containing 10 μL of the compound to be tested dissolved in DMSO, and 10 μL of 100 mM isopropyl 1-thio-β-D-galactopyranoside (IPTG). The final concentration of the compound was set to 10 μM. The samples were grown overnight at 37 °C under agitation at 1400 rpm, using a Thermomixer (Eppendorf, Hamburg, Germany). […]
The fluorescence normalisation was carried out considering as 100% the Th-S fluorescence of the bacterial cells expressing Aβ42 in the absence of drug, and 0% the Th-S fluorescence of the bacterial cells non-expressing Aβ42 (in absence of the protein production inductor, IPTG). […]

T1 sequence (O42275 24-633): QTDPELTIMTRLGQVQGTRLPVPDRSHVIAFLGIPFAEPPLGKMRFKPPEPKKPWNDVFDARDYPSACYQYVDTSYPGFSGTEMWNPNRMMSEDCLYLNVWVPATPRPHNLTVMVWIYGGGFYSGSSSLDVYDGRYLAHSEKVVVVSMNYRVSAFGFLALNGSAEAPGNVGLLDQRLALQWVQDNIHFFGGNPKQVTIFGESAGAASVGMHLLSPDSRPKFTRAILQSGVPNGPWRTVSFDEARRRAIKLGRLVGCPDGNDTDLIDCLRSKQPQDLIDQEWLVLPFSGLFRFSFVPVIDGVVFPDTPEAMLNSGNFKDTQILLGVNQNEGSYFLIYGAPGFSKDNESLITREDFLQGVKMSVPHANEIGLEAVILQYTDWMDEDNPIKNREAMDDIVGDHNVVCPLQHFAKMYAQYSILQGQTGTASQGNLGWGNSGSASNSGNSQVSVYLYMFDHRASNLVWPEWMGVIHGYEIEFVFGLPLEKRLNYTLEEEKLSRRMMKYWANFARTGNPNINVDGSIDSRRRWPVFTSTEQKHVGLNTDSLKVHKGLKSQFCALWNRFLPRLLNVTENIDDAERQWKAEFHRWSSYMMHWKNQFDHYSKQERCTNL
T2 sequence (P81908 whole entry): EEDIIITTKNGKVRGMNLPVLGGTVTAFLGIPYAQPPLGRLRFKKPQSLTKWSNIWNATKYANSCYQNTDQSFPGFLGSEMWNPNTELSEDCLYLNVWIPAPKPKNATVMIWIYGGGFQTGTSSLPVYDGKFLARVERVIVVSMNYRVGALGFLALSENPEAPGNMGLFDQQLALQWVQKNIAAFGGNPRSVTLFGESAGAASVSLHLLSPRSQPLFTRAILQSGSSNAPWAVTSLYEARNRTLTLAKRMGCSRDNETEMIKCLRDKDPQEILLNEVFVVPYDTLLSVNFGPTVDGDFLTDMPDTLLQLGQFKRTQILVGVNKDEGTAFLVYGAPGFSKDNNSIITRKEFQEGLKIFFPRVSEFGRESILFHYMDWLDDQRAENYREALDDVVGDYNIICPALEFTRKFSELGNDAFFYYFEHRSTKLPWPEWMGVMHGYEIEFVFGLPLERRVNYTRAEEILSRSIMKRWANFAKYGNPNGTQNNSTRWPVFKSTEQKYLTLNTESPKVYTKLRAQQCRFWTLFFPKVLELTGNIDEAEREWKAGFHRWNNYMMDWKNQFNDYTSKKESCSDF

| Compound | Selectivity for AChE [1] | IC50 [1] [nM] | Selectivity for BuChE [2] | IC50 [2] [nM] | also measured |
| --- | --- | --- | --- | --- | --- |
| O=C(NCCCCCCCNc1c2c(nc3ccccc13)CCC2)c1cc(Cl)cc(Cl)c1 [Compound 3f] | 0.46 | 253 ± 42 | 2.16 | 117 ± 27 | – |
| heparin | – | – | – | – | IC50 (hyaluronidase): 56400 ± 780 nM |
| O=C(NCCCCCCCCCNc1c2c(nc3ccccc13)CCC2)c1cc(Cl)cc(Cl)c1 [Compound 3h] | 0.91 | 145 ± 13 | 1.10 | 131 ± 11 | – |
| O=C(NCCCCCNc1c2c(nc3ccccc13)CCC2)c1cc(Cl)cc(Cl)c1 [Compound 3d] | 5.33 | 211 ± 31 | 0.19 | 1120 ± 180 | – |
| CC(CN1c2ccccc2Sc2ccccc21)N(C)C.Cl (stereo not drawn) [Promethazine HCl] | – | – | – | – | Experimental properties pKa [3]: 9.10[54] |
| O=C(NCCCNc1c2c(nc3ccccc13)CCC2)c1cc(Cl)cc(Cl)c1 [Compound 3b] | 0.56 | 1180 ± 134 | – | 889 ± 27 | – |
| O=C(NCCNc1c2c(nc3ccccc13)CCC2)c1cc(Cl)cc(Cl)c1 [Compound 3a] | 0.15 | 1540 ± 121 | 6.88 | 225 ± 21 | – |
| Nc1c2c(nc3ccccc13)CCCC2 [Tacrine, 9-amino-1,2,3,4-tetrahydroacridine, reference compound] | – | – | – | – | cell viability (hepatotoxicity, MTT) [4]: 100.67% |
| O=C(NCCCCNc1c2c(nc3ccccc13)CCC2)c1cc(Cl)cc(Cl)c1 [Compound 3c] | 0.11 | 1160 ± 130 | 9.18 | 126 ± 7 | – |
| Cc1c(C)c2c(c(C)c1O)CCC(C)(C(=O)O)O2 (stereo not drawn) [Trolox, reference compound] | – | – | – | – | % neuroprotection (SH-SY5Y cells [5]; compound 0.01 µM): 77.16%; % neuroprotection (SH-SY5Y cells [5]; compound 0.1 µM): 91.22%; % neuroprotection (SH-SY5Y cells [5]; compound 1 µM): 96.03%; % neuroprotection (SH-SY5Y cells [5]; compound 10 µM): 95.05%; % neuroprotection (SH-SY5Y cells [6]): 2.15%; % neuroprotection (SH-SY5Y cells [7]; compound 0.001 µM): 5.60%; % neuroprotection (SH-SY5Y cells [7]; compound 0.01 µM): 4.67%; % neuroprotection (SH-SY5Y cells [7]; compound 0.1 µM): 0.35% |
| O=C(NCCCCCCCCNc1c2c(nc3cc(Cl)ccc13)CCCC2)c1ccc2nc(-c3ccc(Cl)cc3)c3c(c2c1)NCCC3 [DP128, reference compound] | – | – | – | – | anti-amyloid (inhibition) capacity for Aβ42 (Aβ42): 69.2 ± 4.1 |
| O=C(NCCCCCCCCNc1c2c(nc3ccccc13)CCC2)c1cc(Cl)cc(Cl)c1 [Compound 3g] | 0.22 | 1480 ± 133 | 4.50 | 330 ± 34 | – |
